Data on 5 molecules can be found in PubChem BioAssay AID2060345 (Molecular Pharmacology Branch, DTP, NCI, 2025).

By IC50 is commonly meant the concentration that gives 50% inhibition. By viability, T/C is commonly meant the result in the treated group divided by that in the control group, in per cent.

This test deals with MALME-3M multicell spheroids, viability. Briefly: Anticancer human tumor MALME-3M cell line growth inhibition [TAK].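 On all read-outs here: spheroids exposed to drugs for seven days before readout.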 The note with it: for viability, T/C: stronger effect = lower value. The text has this:
Combinatorial screen of targeted agents with TAK-243 and ipatasertib in multi-cell type tumor spheroids
A high-throughput screen of multi-cell type tumor spheroids was designed to identify active combinations of targeted small molecules and TAK-243 or ipatasertib. Complex spheroids include a stromal component modeled by human endothelial cells (HUVEC) and fibroblasts modeled by human mesenchymal stem cells (MSCs). The concentration ranges selected for each drug and investigational agent were based upon clinically achievable concentrations if the clinical Cmax of the agent was known.
Compounds. The drugs and investigational agents: TAK-243 (785004), ipatasertib (767898), everolimus (733504), selumetinib (741078), bortezomib (756655), trametinib (758246), ixazomib (758254), vemurafenib (761431), dabrafenib (764134), sapanisertib (764658), alpelisib (765974), and copanlisib (816437), were obtained from the National Cancer Institute (NCI) Developmental Therapeutics Program Chemical Repository. The FDA-approved anticancer drug set is available from the NCI Developmental Therapeutics Program. […] The stock solutions were prepared in dimethyl sulfoxide (DMSO, Sigma-Aldrich, St. Louis, MO, cat. D2650) at 800-fold the tested concentration and stored at -70 degrees C prior to their use. All drugs and investigational agents were tested over a range starting from a high concentration at or near the clinical Cmax and decreasing in half-log increments. If the clinical Cmax for an agent had not been determined, the highest concentration tested was 10 microM.
NCI60 Cell Culture. NCI60 cell lines were obtained from the NCI Developmental Therapeutics Program Tumor Repository. For each lot of cells, the Repository performed Applied Biosystems AmpFLSTR Identifiler testing with PCR amplification to confirm consistency with the published Identifier STR profile for each cell line. Cells were kept in continuous culture for no more than 20 passages. The optimal seeding densities for each of the cell lines at each time point assessed were determined prior to performing the concentration response studies. Briefly, the NCI60 human tumor lines were grown as monolayers in RPMI 1640 medium supplemented with 10% FBS and 2 mmol/L L-glutamine.
An additional 2 lines were from the NCI60 cell line panel including melanomas, MALME-3M and SK-MEL-2. Pooled donor human umbilical vein endothelial cells (HUVEC, Lonza, cat. CC-2519) and human mesenchymal stem cells (hMSC, Lonza, cat. PT-2501) were purchased from Lonza (Walkersville, MD).
PDMR cell lines were grown in complete medium (DC medium): Dulbecco's modified Eagle's medium (DMEM)/F12 supplemented with 5% fetal bovine serum (FBS), 2 mM L-glutamine, 100 U/mL penicillin and 100 µg/ml streptomycin, 0.4 µg/ml hydrocortisone, 10 ng/ml epidermal growth factor (EGF) recombinant human protein, 24 µg/mL adenine, and 0.1 mg/mL primocin. During culture from frozen stock vials, PDMR cells were cultured in the same medium containing 10 µM Y-27632 (see Table 3). The PDCs were cultured in complete DMEM/F12 media without 10 microM Y-27632 dihydrochloride for at least two passages prior to the screen. The pooled donor HUVEC and hMSC were cultured in endothelial cell growth medium 2 (PromoCell, Heidelberg, Germany, cat. C-22011) and mesenchymal stem cell growth medium 2 (PromoCell, cat. C-28009), respectively. For all experiments, HUVEC and hMSC were used at passages </=5.
For the pre-screen, cell seeding densities were determined from a titration spanning the range from 5,000 to 313 cells per well. The mct-spheroids including 60% malignant cells, 25% HUVEC and 15% MSC dispensed as a mixture into U-bottom Ultra-Low Attachment 384-well plates (Corning, NY)
High-throughput Drug Combination Screening.
Prior to their inoculation into 384-well plates, malignant cells, HUVEC, and hMSC were removed from T flasks using TrypLE express (Thermo Fisher Scientific, cat. 12605036) and harvested by centrifugation for 5 min at 233 x g. […]

Where [1] appears, read: curve of first compound, second compound 0.3 µM.
[2] abbreviates: curve of first compound, second compound 0.949 µM.
Setting [3] is: curve of first compound, second compound 3 µM.
[4] abbreviates: curve of first compound, second compound 9.49 µM.
Setting [5] is: curve of first compound, second compound 30 µM.

“And” between values parts separate entries of the source, which are not always exact repeats. Equal entries are not always repeated.

Consider `COc1c(OCCCN2CCOCC2)ccc2c3n(c(=NC(=O)c4cnc(N)nc4)nc12)CCN3` + CC(C)NCC(C(=O)N1CCN(c2ncnc3c2C(C)CC3O)CC1)c1ccc(Cl)cc1, for which the IC50 under setting [1] worked out at 125 nM; the IC50 under setting [2] was found to be 109 nM; the IC50 under setting [3] turned out to be 66.2 nM; the 50% inhibitory concentration (IC50) under setting [4] was 41.4 nM; the IC50 under setting [5] came out at 5.9 nM. In addition, the viability, T/C by setting is: (second compound 0.3 µM, first compound 0.00316 µM) 109%; (second compound 0.3 µM, first compound 0.01 µM) 96.3%; (second compound 0.3 µM, first compound 0.0316 µM) 76.3%; (second compound 0.3 µM, first compound 0.1 µM) 62.2%; (second compound 0.3 µM, first compound 0.316 µM) 23.1%; (second compound 0.3 µM, first compound 1 µM) 12.3%. Moreover, the viability, T/C was 98.4% (second compound 0.949 µM, first compound 0.00316 µM); 95% (second compound 0.949 µM, first compound 0.01 µM); 76.2% (second compound 0.949 µM, first compound 0.0316 µM); 55.3% (second compound 0.949 µM, first compound 0.1 µM); 22.3% (second compound 0.949 µM, first compound 0.316 µM); 11.7% (second compound 0.949 µM, first compound 1 µM). The viability, T/C by setting is: (second compound 3 µM, first compound 0.00316 µM) 82.3%; (second compound 3 µM, first compound 0.01 µM) 81.8%; (second compound 3 µM, first compound 0.0316 µM) 63.1%; (second compound 3 µM, first compound 0.1 µM) 43.6%; (second compound 3 µM, first compound 0.316 µM) 16.7%; (second compound 3 µM, first compound 1 µM) 10.6%. In addition, the viability, T/C is 69.8% (second compound 9.49 µM, first compound 0.00316 µM); 72.8% (second compound 9.49 µM, first compound 0.01 µM); 54.2% (second compound 9.49 µM, first compound 0.0316 µM); 31.3% (second compound 9.49 µM, first compound 0.1 µM); 15.3% (second compound 9.49 µM, first compound 0.316 µM); 11.8% (second compound 9.49 µM, first compound 1 µM). The viability, T/C was 45.8% (second compound 30 µM, first compound 0.00316 µM); 56.7% (second compound 30 µM, first compound 0.01 µM); 39.3% (second compound 30 µM, first compound 0.0316 µM); 26.5% (second compound 30 µM, first compound 0.1 µM); 10.6% (second compound 30 µM, first compound 0.316 µM); 6.33% (second compound 30 µM, first compound 1 µM).

For the molecule `CC(C)CC(NC(=O)C(Cc1ccccc1)NC(=O)c1cnccn1)B(O)O` (configuration not stated), the viability, T/C by setting is: (compound 31.6 pM) 105% and 95.5%; (compound 0.0001 µM) 97.5% and 87.7%; (compound 0.000316 µM) 98.5% and 86.3%; (compound 0.001 µM) 97.5% and 70.5%; (compound 0.00316 µM) 25.8% and 18.3%; (compound 0.01 µM) 0.68% and 0.19%. Besides, the concentration for half-maximal inhibition (IC50) (curve of compound) is 2.14 nM and 1.56 nM.

As for `CC(C)NCC(C(=O)N1CCN(c2ncnc3c2C(C)CC3O)CC1)c1ccc(Cl)cc1` (configuration not stated), the viability, T/C by setting is: (compound 9.49 µM) 76% [middle of 10 runs]; (compound 30 µM) 50.4% [middle of 10 runs]. In addition, under “compound alone, run of 02/20/2020”, the IC50 was > 30000 nM and 23200 nM and 14800 nM.

Regarding `Cn1cnc2c(F)c(Nc3ccc(Br)cc3Cl)c(C(=O)NOCCO)cc21`, the viability, T/C (compound 0.00949 µM) is 82.6% and 84.7%; the viability, T/C (compound 0.03 µM) was 49% and 52.6%; the viability, T/C (compound 0.0949 µM) was 22% and 21.7%; the viability, T/C (compound 0.3 µM) is 15.4% and 16.9%; the viability, T/C (compound 0.949 µM) is 12%; the viability, T/C (compound 3 µM) was 5.64% and 5.37%. The IC50 (curve of compound) is 28.2 nM and 32 nM.

Consider `Cn1cnc2c(F)c(Nc3ccc(Br)cc3Cl)c(C(=O)NOCCO)cc21` + CC(C)NCC(C(=O)N1CCN(c2ncnc3c2C(C)CC3O)CC1)c1ccc(Cl)cc1, for which the IC50 was 41.1 nM under setting [1]; 36 nM under setting [2]; 36.5 nM under setting [3]; 17.2 nM under setting [4]; below 9.49 nM under setting [5]. Further, the viability, T/C is 92.5% (second compound 0.3 µM, first compound 0.00949 µM); 60.7% (second compound 0.3 µM, first compound 0.03 µM); 21% (second compound 0.3 µM, first compound 0.0949 µM); 19% (second compound 0.3 µM, first compound 0.3 µM); 13.1% (second compound 0.3 µM, first compound 0.949 µM); 5.91% (second compound 0.3 µM, first compound 3 µM). Besides, the viability, T/C (second compound 0.949 µM, first compound 0.00949 µM) is 86.2%; the viability, T/C (second compound 0.949 µM, first compound 0.03 µM) is 55.6%; the viability, T/C (second compound 0.949 µM, first compound 0.0949 µM) is 23.5%; the viability, T/C (second compound 0.949 µM, first compound 0.3 µM) is 16.7%; the viability, T/C (second compound 0.949 µM, first compound 0.949 µM) was 12%; the viability, T/C (second compound 0.949 µM, first compound 3 µM) is 4.79%. Besides, the viability, T/C was 78.3% (second compound 3 µM, first compound 0.00949 µM); 56.6% (second compound 3 µM, first compound 0.03 µM); 19.6% (second compound 3 µM, first compound 0.0949 µM); 16.3% (second compound 3 µM, first compound 0.3 µM); 9.28% (second compound 3 µM, first compound 0.949 µM); 3.64% (second compound 3 µM, first compound 3 µM). For the same molecule, the viability, T/C by setting is: (second compound 9.49 µM, first compound 0.00949 µM) 66.8%; (second compound 9.49 µM, first compound 0.03 µM) 33.1%; (second compound 9.49 µM, first compound 0.0949 µM) 19.6%; (second compound 9.49 µM, first compound 0.3 µM) 12.1%; (second compound 9.49 µM, first compound 0.949 µM) 7.13%; (second compound 9.49 µM, first compound 3 µM) 2.1%. The viability, T/C was 47.3% (second compound 30 µM, first compound 0.00949 µM); 31.6% (second compound 30 µM, first compound 0.03 µM); 13.1% (second compound 30 µM, first compound 0.0949 µM); 7.49% (second compound 30 µM, first compound 0.3 µM); 3.66% (second compound 30 µM, first compound 0.949 µM); 0.52% (second compound 30 µM, first compound 3 µM).
